Read-outs that look alike come from different tables or passages of the source.
Columns and labels:
Pfa1 cells = assay: Inhibition of non-apoptotic cell death after tamoxifen-induced GPx4 knockout (Pfa1/TAM, Example B.4); assay type: cell-based, mouse
From the text: To combat high intracellular ROS levels, mammalian cells have evolved an intricate network of ROS scavenging in cells, in which the thioredoxin and glutathione (GSH) dependent systems prevail. […] Knockout of GPx4 in neurons causes massive neurodegeneration in cortical, cerebellar and hippocampal neurons underscoring the high relevance of ROS-induced cell death signaling in the brain. Briefly, immortalised fibroblasts from these mice were made to contain tamoxifen-inducible CreERT2, which catalyzes the functional ablation of both copies of GPx4 and resulting in a complete knockout of GPx4, a massive ROS burst, and cell death in cell culture. These cells (Pfa1 cells) were used to characterize compounds disclosed herein, whereby tamoxifen (TAM) was given on day 0 along with the compound under test, and 72 hours later cell survival was evaluated using AlamarBlue.

[1] = Cellular toxicity, Pfa1 cells without TAM (Example B.5); assay type: cell-based; details: mouse, * not tested at higher concentrations, read-out: TC50 (the source's name)
From the text: An estimate of the toxicity for compounds disclosed herein was obtained by using the same assay as described in Example B.4, but without the addition of TAM. […] Such TC50 values obtained for certain compounds disclosed herein, together with an approximate therapeutic window (estimated by dividing each TC50 by the corresponding IC50 determined from example B.4) are shown in Table 3 and Table 4.

[2] = tested on: mouse hippocampal cell line (Ht22); assay: Inhibition of glutamate-induced non-apoptotic cell death (Ht22/GLU, Example B.2); assay type: cell-based
From the text: Glutamate toxicity is conferred on cells from the mouse hippocampal cell line (Ht22) by inhibition of the cysteine/glutamate antiporter, System xc-, leading to impaired cysteine uptake and subsequent GSH depletion. This model is frequently used for mimicking glutathione depletion following oxidative stress in stroke, brain trauma and other neurodegenerative diseases and cellular conditions following ischemia (for example: van Leyen et al, J. Neurochem. 92:824-30 (2005)).
Compounds disclosed herein were evaluated for their ability to promote cell survival upon administration of a lethal dose of glutamate (GLU) to the cell-culture medium.
Briefly, Ht22cells (ATCC or Invitrogen) were propagated DMEM supplemented with 10% FBS/1% Penicillin-Streptomycin, and then seeded onto 96-well plates at a concentration of 2,000 cells/well in 100 μL of MEDIA, simultaneously with glutamate (Sigma Aldrich) to a final concentration of 5 mM, together with increasing concentrations of the compound to be tested (0.5 pM to 100 μM), and the plates incubated at 37° C./5% CO2 for 72 hours. Compound dilutions were prepared from 10 mM stocks dissolved in DMSO and diluted in media. Cells treated with glutamate alone were used as negative control and alpha-tocopherol (Sigma Aldrich) was used as positive control. Compound concentrations were tested in triplicate. After incubation, cell survival was detected and quantified as described in Example B.1.

[3] = Mus musculus, methylated analogues of C-2
[4] = HT-22, 5 mM glutamate, 72 hours, cell survival, read-out: Ht22/GLU
[5] = Mus musculus, tamoxifen on day 0, cell survival after 72 hours
[6] = HT-22, 72 h, read-out: Ht22/GLU [μM]

| SMILES | IC50 (Pfa1 cells; [3]) | IC50 (Pfa1 cells; methylated analogues of C-2) | CC50 [1] | IC50 [2, 4] | IC50 (Pfa1 cells; [5]) | IC50 [2, 6] |
| --- | --- | --- | --- | --- | --- | --- |
| CN1/C(=N/Cc2cccc(Cl)c2)C2(CCCCC2)N(C)c2ccccc21 [C-2-2Me] | > 10 µM | – | – | – | – | – |
| CN1c2ccccc2N=C(NCc2cccc(Cl)c2)C12CCCCC2 [C-2-Me-I] | – | > 10 µM | – | – | – | – |
| Clc1cccc(CNC2=Nc3ccccc3NC23CCCCC3)c1 [C-2] | < 0.01 µM | – | – | – | – | – |
| CC(C)CCNC1=Nc2ccccc2NC12CCCCCC2 [D-1] | – | – | 10 to 50 µM | < 1 µM | < 2 µM | – |
| c1ccc2c(c1)CCC2NC1=Nc2ccccc2NC12CCCCC2 [D-2] | – | – | 10 to 50 µM | < 1 µM | < 2 µM | – |
| c1ccc2c(c1)CCC2NC1=Nc2ccccc2NC12CCOCC2 [D-3] | – | – | 50 to 100 µM | < 5 µM | < 2 µM | – |
| c1ccc2c(c1)CCCC2NC1=Nc2ccccc2NC12CCCCC2 [D-4] | – | – | 20 to 50 µM | < 0.5 µM | < 0.2 µM | – |
| c1ccc2c(c1)CCC2NC1=Nc2ccccc2NC12CCNCC2 [D-5] | – | – | 5 to 10 µM | < 0.2 µM | < 0.1 µM | – |
| c1ccc2c(c1)N=C(NCCc1c[nH]c3ccccc13)C1(CCNCC1)N2 [D-6] | – | – | 5 to 10 µM | < 0.5 µM | < 0.1 µM | – |
| c1ccc2c(c1)CCCC2NC1=Nc2ccccc2NC12CCNCC2 [D-7] | – | – | 10 to 20 µM | < 0.2 µM | < 0.1 µM | – |
| Clc1cccc(CNC2=Nc3ccccc3NC23CC2CCC(C3)N2)c1 [D-8] | – | – | 2 to 5 µM | – | < 0.05 µM | < 0.05 µM |
| c1ccc(CNC2=Nc3ccccc3NC23CC2CCC(C3)N2)cc1 [D-9] | – | – | 5 to 10 µM | – | < 0.5 µM | < 0.5 µM |
| Clc1cccc(CNC2=Nc3ncccc3NC23CCCCC3)c1 [D-10] | – | – | 1 to 5 µM | < 5 µM | < 5 µM | – |
| Clc1cccc(CNC2=Nc3cc(Cl)ncc3NC23CCCCC3)c1 [D-11] | – | – | 10 to 50 µM | < 5 µM | < 5 µM | – |
| c1csc(CNC2=Nc3ccccc3NC23CCCCC3)c1 [D-12] | – | – | 10 to 50 µM | < 1 µM | < 5 µM | – |
| c1cncc(CNC2=Nc3ccccc3NC23CCCCC3)c1 [D-13] | – | – | 50 to 100 µM | < 5 µM | < 5 µM | – |
| CCOC(=O)c1ccc2c(c1)N=C(NC1CCCCC1)C1(CCCCC1)N2 [D-14] | – | – | 10 to 50 µM | < 0.5 µM | < 1 µM | – |
| CC(C)(C)NC1=Nc2ccccc2NC12CCOCC2 [D-15] | – | – | 50 to 100 µM | < 5 µM | < 5 µM | – |
| CC(C)(C)NC1=Nc2ccccc2NC12CCSCC2 [D-16] | – | – | > 5 µM | < 1 µM | < 1 µM | – |
| Cc1cc(CNC2=Nc3ccccc3NC23CCCCC3)on1 [D-17] | – | – | > 50 µM | < 2 µM | < 5 µM | – |
| Clc1cc2c(cc1Cl)NC1(CCCCC1)C(NCc1cccnc1)=N2 [D-19] | – | – | 10 to 50 µM | < 0.05 µM | < 0.5 µM | – |
| c1ccc2c(c1)N=C(NCc1nccs1)C1(CCCCC1)N2 [D-20] | – | – | > 50 µM | < 2 µM | < 5 µM | – |
| Clc1cc2c(cc1Cl)NC1(CCCCC1)C(NCc1cccs1)=N2 [D-21] | – | – | 5 to 10 µM | < 0.2 µM | < 0.5 µM | – |
| c1ccc2c(c1)N=C(NCc1cncs1)C1(CCCCC1)N2 [D-22] | – | – | > 50 µM | < 5 µM | < 5 µM | – |
| c1coc(CNC2=Nc3ccccc3NC23CCCCC3)c1 [D-23] | – | – | > 50 µM | < 5 µM | < 5 µM | – |
| c1ccc2c(c1)N=C(NCc1ccncc1)C1(CCCCC1)N2 [D-24] | – | – | > 50 µM | < 5 µM | < 5 µM | – |
| c1csc(CNC2=Nc3ccccc3NC23CCNCC3)c1 [D-181] | – | – | 20 to 50 µM | < 0.1 µM | < 0.5 µM | – |
| CN1CCC2(CC1)Nc1cc(Cl)c(Cl)cc1N=C2NCc1cccc(Cl)c1 [F-24] | – | – | 0.2 to 0.5 µM | < 0.02 µM | < 0.05 µM | – |
| C#CCCCCCCCCC(=O)N1CCC2(CC1)Nc1ccccc1N=C2NCc1cccc(Cl)c1 [F-25] | – | – | 10 to 20 µM | < 0.2 µM | < 0.2 µM | – |

— patent publication US10647687B2, “Spiropyrazine derivatives as inhibitors of non-apoptotic regulated cell-death” (Helmholtz Zentrum München Deutsches Forschungszentrum für …, priority 2014, dated 2020)
